From patent US20250346606A1, “CAMPTOTHECIN COMPOUND, PREPARATION METHOD THEREFOR, AND APPLICATION THEREOF” (SICHUAN KELUN-BIOTECH BIOPHARMACEUTICAL CO., LTD., priority 2021, published 2025)
pIC50: −log10 of the molar value. Like-named read-outs stand apart in the source and are kept apart here.

Experiments:
Assay type in all cases: cell-based, Human
[1] = test system: Hela cells; assay: Inhibitory effect of compounds on Hela cell proliferation; settings: read-out: IC50, inhibitory activity on Hela cell proliferation
Description: (1) Cell plating: First, tumor cells Hela were cultured in corresponding medium, then digested with trypsin, centrifuged, resuspended, and counted, and the cells were adjusted to an appropriate concentration for plating.
(§1) Co-incubation of the compound of the present disclosure and tumor cells: after the cells adhered to the wall, the medium was removed, and the diluted bioactive molecule (the compound of the present disclosure) was added to the wells of the above plate, and incubated for 72 h.
(§2) In vitro cell viability detection: After the incubation, 50 μL of Cell Counting-Lite™ 2.0 reagent (Vazyme/Novazyme) was added to each well, shaken and mixed well in the dark, reacted for 10 minutes, and then the detection was carried out with a microplate reader (manufacturer: BMG, Model: PHERAStar-FS) for reading. The background RLU was obtained by using cell-free medium (with Cell Counting-Lite™), and the vehicle RLU was obtained by using cell-containing medium (with Cell Counting-Lite™). Cell inhibition rate=1−(sample RLU−background RLU)/(solvent RLU−background RLU)×100%. According to the four-parameter model fitting curve, the half maximal inhibitory concentration (IC50) of the compound was calculated, and the detection results were shown in Table 14.

[2] = test system: SKOV-3 cells; assay: Inhibitory effect of compounds on SKOV-3 cell proliferation; settings: read-out: IC50, inhibitory activity on SKOV-3 cell proliferation
Description: (1) Cell plating: First, tumor cells SKOV-3 were cultured in corresponding medium, then digested with trypsin, centrifuged, resuspended, and counted, and the cells were adjusted to an appropriate concentration for plating.
as §1
as §2, with “8.” for “14.”

[3] = test system: HCC1806 cells; assay: Inhibitory effect of compounds on HCC1806 cell proliferation
Description: (1) Cell plating: First, tumor cells HCC1806 were cultured in corresponding medium, then digested with trypsin, centrifuged, resuspended, and counted, and the cells were adjusted to an appropriate concentration for plating.
as §1
as §2, with “6.” for “14.”

[4] = test system: NCI-H358 cells; assay: Inhibitory effect of compounds on NCI-H358 cell proliferation
Summary of the method: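 Adherent NCI-H358 cells were exposed to compound for 72 h, then viability was read by luminescence (Cell Counting-Lite 2.0). Inhibition calculated from RLU relative to cell-free background and vehicle wells; IC50 from a four-parameter fit.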

[5] = test system: MDA-MB-231 cells; assay: Inhibitory effect of compounds on MDA-MB-231 cell proliferation; settings: read-out: IC50, inhibitory activity on MDA-MB-231 cell proliferation
Description: (1) Cell plating: First, tumor cells MDA-MB-231 were cultured in corresponding medium, then digested with trypsin, centrifuged, resuspended, and counted, and the cells were adjusted to an appropriate concentration for plating.
as §1
as §2, with “18.” for “14.”

[6] = test system: HT29 cells; assay: Inhibitory effect of compounds on HT29 cell proliferation; settings: read-out: IC50, inhibitory activity on HT29 cell proliferation
Summary of the method: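 Adherent HT29 cells incubated with diluted compounds for 72 h; viability read by luminescence (Cell Counting-Lite 2.0, 10 min). Inhibition calculated against cell-free background and vehicle-treated cells; IC50 from four-parameter curve fit.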

[7] = test system: A549 cells; assay: Inhibitory effect of compounds on A549 cell proliferation; settings: read-out: IC50, inhibitory activity on A549 cell proliferation
Description: (1) Cell plating: First, tumor cells A549 were cultured in the corresponding medium, then digested with trypsin, centrifuged and resuspended, and counted, and the cells were adjusted to an appropriate concentration for plating.
as §1
as §2, with “activity” for “viability”, “4.” for “14.”

[8] = test system: Jeko-1 cells; assay: Inhibitory effect of compounds on Jeko-1 cell proliferation; settings: Jeko-1 human mantle cell lymphoma cells, 72 h incubation, Cell Counting-Lite 2.0; read-out: IC50, inhibitory activity on Jeko-1 cell proliferation
Description: (1) Cell plating: First, tumor cells Jeko-1 were cultured in corresponding medium, then digested with trypsin, centrifuged, resuspended, and counted, and the cells were adjusted to an appropriate concentration for plating.
as §1
as §2, with “20.” for “14.”

[9] = test system: NCI-N87 cells; assay: Inhibitory effect of compounds on NCI-N87 cell proliferation
Summary of the method: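 Adherent NCI-N87 cells were exposed to compound dilutions for 72 h. Viability measured by Cell Counting-Lite 2.0 luminescence, with inhibition calculated against vehicle and cell-free background RLU. IC50 from four-parameter fit.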

[10] = test system: HCC70 cells; assay: Inhibitory effect of compounds on HCC70 cell proliferation; settings: read-out: IC50, inhibitory activity on HCC70 cell proliferation
Description: (1) Cell plating: First, tumor cells HCC70 were cultured in corresponding medium, then digested with trypsin, centrifuged, resuspended, and counted, and the cells were adjusted to an appropriate concentration for plating.
as §1
as §2, with “16.” for “14.”

[11] = Homo sapiens, HCC1806, 72 h, read-out: IC50, inhibitory activity on HCC1806 cell proliferation, HCC1806 human breast squamous carcinoma cells, 72 h incubation, Cell Counting-Lite 2.0
[12] = Homo sapiens, NCI-H358, 72 h, read-out: IC50, inhibitory activity on NCI-H358 cell proliferation, NCI-H358 human non-small cell lung cancer cells, 72 h incubation, Cell Counting-Lite 2.0
[13] = NCI-N87 human gastric cancer cells, 72 h incubation, Cell Counting-Lite 2.0, read-out: IC50, inhibitory activity on NCI-N87 cell proliferation
[14] = HT-29, HT29 human colon cancer cells, 72 h incubation, Cell Counting-Lite 2.0

SMILES | pIC50 ([2]; Homo sapiens, SK-OV-3, 72 h) | pIC50 [3, 11] | pIC50 [4, 12] | pIC50 ([6]; Homo sapiens, HT-29, 72 h) | pIC50 [9, 13] | pIC50 [6, 14] | pIC50 ([10]; Homo sapiens, HCC70, 72 h) | pIC50 ([7]; Homo sapiens, A549, 72 h) | other results
CC[C@@]1(O)C(=O)OCc2c1cc1n(c2=O)Cc2c-1nc1cc(Cl)c(C)c3c1c2[C@@H](NC(=O)CO)CC3 [Example 3 (2-1-A), N-((1S,9S)-5-chloro-9-ethyl-9-hydroxy-4-methyl-10,13-dioxo-2,3,9,10,13,15-hexahydro-1H,12H-benzo[de]pyrano[3′,4′:6,7]indolizino[1,2-b]quinolin-1-yl)-2-hydroxyacetamide] | 8.15 | 8.84 | 7.16 | 8.30 |  |  |  |  | pIC50 ([1]; Homo sapiens, HeLa, 72 h): 7.77; pIC50 ([5]; Homo sapiens, MDA-MB-231, 72 h): 6.52
CC[C@@]1(O)C(=O)OCc2c1cc1n(c2=O)Cc2c-1nc1cc(F)c(C)cc1c2CNC(=O)C1(O)CC1 [Example 11 (4-10), (S)—N-((4-ethyl-8-fluoro-4-hydroxy-9-methyl-3,14-dioxo-3,4,12,14-tetrahydro-1H-pyrano[3′,4′:6,7]indolizino[1,2-b]quinolin-11-yl)methyl)-1-hydroxycyclopropane-carboxamide] |  |  |  |  | 8.64 | 9.28 |  |  | pIC50 ([1]; Hela human cervical cancer cells, 72 h incubation, Cell Counting-Lite 2.0): 8.52; pIC50 ([7]; A549 human lung cancer cells, 72 h incubation, Cell Counting-Lite 2.0): 7.16; pIC50 [8]: 9.35
CC[C@@]1(O)C(=O)OCc2c1cc1n(c2=O)Cc2c-1nc1cc(Cl)c(C)c3c1c2[C@H](NC[C@H](C)O)CC3 [Example 4 (2-7-B), (2S)—N-((1R,9S)-5-chloro-9-ethyl-9-hydroxy-4-methyl-10,13-dioxo-2,3,9,10,13,15-hexahydro-1H,12H-benzo[de]pyrano[3′,4′:6,7]indolizino[1,2-b]quinolin-1-yl)-2-hydroxypropylamine] | 8.02 |  | 7.29 | 8.26 |  |  | 6.72 | 7.79 | 
CC[C@@]1(O)C(=O)OCc2c1cc1n(c2=O)Cc2c-1nc1cc(Cl)c(C)c3c1c2[C@@H](NC(=O)[C@H](O)C1CC1)CC3 [Example 5 (2-12-C), (2R)—N-((1S,9S)-5-chloro-9-ethyl-9-hydroxy-4-methyl-10,13-dioxo-2,3,9,10,13,15-hexahydro-1H,12H-benzo[de]pyrano[3′,4′:6,7]indolizino[1,2-b]quinolin-1-yl)-2-cyclopropyl-2-hydroxyacetamide] | 8.19 | 8.68 | 7.64 | 8.83 |  |  | 6.68 | 8.18 | pIC50 ([9]; Homo sapiens, NCI-N87, 72 h, read-out: IC50, inhibitory activity on NCI-N87 cell proliferation, NCI-N87 human gastric cancer cells, 72 h incubation, Cell Counting-Lite 2.0): 8.35
CC[C@@]1(O)C(=O)OCc2c1cc1n(c2=O)Cc2c-1nc1cc(F)c(C)c3c1c2[C@@](C)(N)CC3 (single isomer, unassigned) [Example 12 (5-13-A)] |  |  |  |  | 8.63 | 9.06 |  |  | pIC50 ([10]; HCC70 human breast cancer cells, 72 h incubation, Cell Counting-Lite 2.0): 7.44; pIC50 ([2]; SK-OV-3, SKOV-3 human ovarian cancer cells, 72 h incubation, Cell Counting-Lite 2.0): 8.68; pIC50 ([3]; HCC1806 human breast squamous carcinoma cells, 72 h incubation, Cell Counting-Lite 2.0, read-out: IC50, inhibitory activity on HCC1806 cell proliferation): 9.02; pIC50 ([4]; NCI-H358 human non-small cell lung cancer cells, 72 h incubation, Cell Counting-Lite 2.0, read-out: IC50, inhibitory activity on NCI-H358 cell proliferation): 8.15; pIC50 ([5]; MDA-MB-231 human breast cancer cells, 72 h incubation, Cell Counting-Lite 2.0): 6.48
